Reference: patent publication US20230101768A1, “METHOD TO TREAT MANGANESE TOXICITY AND MANGANESE-INDUCED PA[…] HUMANS” (priority 2021, published 2023)

Assays:
SLC30A10 [1] = format: cell-based, human; conditions: HepG2 cells
Description: (§1) Cells were treated with 0 or 250 μM manganese for 4 h, and gene expression was analyzed by qRT-PCR. For each transcript, expression without manganese treatment was normalized to 1. N=4. Data are mean±SE.
(§2) Cell culture. HepG2 cells were grown in Eagle's modified essential medium (MEM; Corning) with 10% fetal bovine serum (Atlanta Biologicals), 100 IU/ml penicillin (Corning), and 100 μg/ml streptomycin (Corning). 293T cells were maintained in Dulbecco's modified essential medium/F12 (Thermo) supplemented with 10% fetal bovine serum, penicillin (100 IU/ml), and streptomycin (100 μg/ml). Human primary hepatocytes were purchased from XenoTech (catalog #HPCH10+) and cultured according to protocols provided by the supplier.
(§3) manganese and drug treatments in cell culture. Cells were treated with indicated levels of manganese as manganeseCl2.4H2O (Fisher). Vehicle for manganese treatment was water. Prolyl hydroxylase inhibitors roxadustat (Caymen), vadadustat, and molidustat (both APE-Bio); the HIFα inhibitor LW6 (Selleckchem); the proteasomal inhibitor MG132 (Sigma); and the transcription inhibitor actinomycin D (Sigma) were dissolved in DMSO. […] Vehicle treatment for all drugs was DMSO.
(§4) Quantitative RT-PCR assays. RNA extraction from HepG2 cells and mouse tissue, reverse transcription to cDNA, and qRT-PCR analyses were performed as described by us previously (47, 50). For analyses of mouse brain samples, a part of the midbrain, including the basal ganglia, was used. Transcript levels were quantified using the ΔΔCT method with 18S (in mice) or TBP (in HepG2 cells) as the internal control, also as described by us previously (47, 50).

VEGF = format: cell-based, human; conditions: HepG2 cells, 250 μM manganese for 4 h; expression without manganese normalized to 1; mean±SE, N=4
Description: as §1, §2, §3, §4

HIF1α = format: cell-based, human; conditions: HepG2 cells, 250 μM manganese; evident at 4 hours, baseline by 24 h
Description: as §3
(§5) Immunoblots. HepG2 cells were cultured in 35 mm dishes, treated with or without manganese, MG132 and/or prolyl hydroxylase inhibitors, and scrapped using 200 μl of RIPA buffer (50 mM Tris-HCl, pH7.4; 150 mM NaCl; 1Mm EDTA; 1% Triton; 0.25% sodium deoxycholate; protease inhibitors cocktail (Thermo A32953)). Whole-cell lysates were prepared by adding loading buffer (50 mM Tris-HCl, pH 7.4; 2% sodium dodecyl sulfate; 10% glycerol, 0.1 M dithiothreitol; 0.01% (weight/volume) bromophenol blue) and boiling the samples for 5 min. Equal volumes of samples were loaded per lane. Further processing was as described by us previously (47). Images were quantified using ImageQuant TL software (GE).
(§6) Antibodies and chemicals. The inventors used the following commercial primary antibodies in this study: rabbit polyclonal anti-HIF1α (Abcam, Ab2185), rabbit polyclonal anti-HIF2α (Novus, NB100-122), rabbit monoclonal anti-HIF1α proline 564 (Cell signaling, 3434S), and mouse monoclonal anti-tubulin (Sigma, T5168). […] Sources of chemicals not provided elsewhere were Thermo Fisher Scientific or Sigma-Aldrich.

HIF2α = format: cell-based, human; conditions: HepG2 cells, 250 μM manganese; evident at 4 hours, baseline by 24 h
Description: as §3, §5, §6

[2] = tested on: prolyl hydroxylated HIF1α; format: cell-based, human; conditions: HepG2 cells, 10 μM MG132 for 1 h then 250 μM manganese for 4 h
Description: as §3, §5, §6

SLC30A10 promoter = format: cell-based, human
Description: A luciferase reporter plasmid containing the proximal promoter of human SLC30A10 has been previously described and was a gift of Dr. Ruth Valentine (100). The promoter fragment corresponding to bases −679 to +211 relative to the start of transcription was sub-cloned into the Xho1 and SpeI sites of pRRLSIN.cPPTLuciferase.WPRE vector (Addgene, #69251), which is a luciferase vector for lentivirus infections. Deletion mutants were generated using the loop-out modification of the QuikChange protocol.
Lentiviral infections. Stable cells were generated by lentivirus infection essentially as described by us previously (49, 98). Briefly, lentivirus was produced in HEK293T cells by co-transfecting transfer plasmids described above with plasmids coding for a third generation packing system that is routinely used (pRSV-Rev, pRRE, and pCMV-VSVG) (49, 98). Viral supernatants were collected 40-48 h post-transfection. HepG2 cells for infection were plated in a 60 mm dish 24 h before infection so that cells reached a confluence of 30% on the day of infection. Collected viral supernatants were filtered through a 0.45-μm polyvinylidene difluoride filter, and cells were incubated with a 1:2 dilution of viral supernatant containing 5 μg/mL Polybrene (Santa Cruz). […]

C57BL/6J mice = conditions: ~30 mg manganese/kg daily in drinking water, 4 weeks
Description: To assay for the protective effect of roxadustat, animals were exposed to roxadustat or vehicle with or without manganese in drinking water from ˜4 weeks of age. Treatment lasted for 4 weeks from initiation. Roxadustat (Selleckchem) was prepared as a 50 mg/ml stock solution in DMSO, then diluted to 1 mg/ml in sterile phosphate buffered saline (PBS), and delivered by daily i.p. injection at 10 mg/kg. Vehicle was 2% DMSO in PBS. For this experiment, drinking water manganese levels were adjusted to 0.138 mg absolute manganese/ml so that animals received ˜30 mg absolute manganese/kg daily. A higher level of manganese was used because exposure was initiated after weaning, which was necessary because daily i.p. injections for roxadustat delivery were not possible in the pre-weaning period.
Animals were euthanized using carbon dioxide and tissue dissected for qRT-PCR or ICPMS analyses as described by us previously (50).
Inductively coupled plasma mass spectrometry. Metal measurements using ICP-MS were performed exactly as described by us previously (47, 50, 51, 99).

SLC30A10 [3] = conditions: HepG2 cells, 250 μM manganese, immunoblot
Description: as §5, §6

[4] = tested on: prolyl hydroxylase domain 2 (PHD2); conditions: HepG2 cells, 250 μM manganese
Description: as §4

O.O.O.O.[Cl][Mn][Cl] [manganese, manganeseCl2.4H2O]
Relative expression after manganese, SLC30A10 transcript (SLC30A10 [1]; 250 μM manganese for 4 h, expression without manganese normalized to 1, mean±SE, N=4): 2.40 ± 0.28 | Time at which SLC30A10 levels returned to baseline (SLC30A10 [1]; 250 μM manganese, time course): ≤ 24 h | Time to statistically significant increase of SLC30A10 (SLC30A10 [1]; 250 μM manganese, time course): ≤ 2 h | Lowest manganese level at which SLC30A10 levels were elevated (SLC30A10 [1]; dose response, 4 h): 62.5 µM | Relative expression after manganese, VEGF transcript (VEGF): 2.41 ± 0.29 | HIF1α protein levels after manganese (HIF1α): increased | HIF2α protein levels after manganese (HIF2α): increased | Signals for prolyl hydroxylated HIF1α in manganese-treated condition [2]: substantially lower | Luciferase activity after manganese (SLC30A10 promoter): increased | Blood manganese after manganese treatment (C57BL/6J mice): trend towards an increase | Brain manganese levels, main effect of manganese treatment (C57BL/6J mice): increasing | SLC30A10 protein levels after manganese (SLC30A10 [3]): increased | PHD2 levels in manganese-treated cells [4]: elevated
